Experimental data taken from paper PMC10673369, “Preliminary SAR of Novel Pleuromutilin–Polyamine Conjugates” (Microorganisms, 2023).

Assays:
[1] = Cytotoxicity assay, HEK293; assay type: cell-based; conditions: human; HEK293 cells; mean (n = 2); read-out: Cytotoxicity (IC50), concentration of compound at 50% cytotoxicity
Method: Cytotoxicity assays were conducted using reported protocols (see Supplementary File). […]
(§1) HEK293 cells were counted manually in a Neubauer hemocytometer and plated at a density of 5,000 cells/well into each well of the 384-well plates containing the 25x (2 µL) concentrated compounds [26,27]. The medium used was Dulbecco's modified Eagle’s medium (DMEM), supplemented with 10% fetal bovine serum (FBS). Cells were incubated together with the compounds for 20 h at 37 °C, 5% CO2.
(§2) To measure cytotoxicity, 5 µL (equals 100 µM final) of resazurin was added to each well after incubation and incubated for further 3 h at 37 °C with 5% CO2. After the final incubation, fluorescence intensity […]
reader. CC50 values (concentration at 50% cytotoxicity) were calculated by normalizing the fluorescence readout, with 74 µg/mL tamoxifen as negative control (0%) and normal cell growth as positive control (100%). The concentration-dependent percentage cytotoxicity was fitted to a dose–response function (using Pipeline Pilot) and CC50 values were determined. […]

E. coli ATCC 25922 = assay: Antibiotic enhancement of erythromycin; assay type: cell-based; conditions: for Erythro/E.c.: fold change, ratio between intrinsic MIC of test compound and combination MIC: erythromycin at 2.7 µM; for Erythro/E.c.: concentration required to restore erythromycin activity: erythromycin at 2.7 µM (2 µg/mL)
Method: [Worded in the source for another target; used here, by the source, with some conditions changed.] Antibiotic restoring enhancer concentrations were determined using reported protocols (see Supplementary File).
Briefly, restoring enhancer concentrations were determined with an inoculum of 5x10^5 CFU in 200 µL of MHB containing two-fold serial dilutions of each derivative in the presence of doxycycline at 4.5 […]
The lowest concentration of the polyamine
These measurements were independently repeated in triplicate.
Outer membrane permeabilization was measured using nitrocefin as a chromogenic substrate of periplasmic β-lactamase. Ten milliliters of MH broth were inoculated with 0.1 mL of an overnight culture of PAO1 bacteria and grown at 37°C until the OD600 reached 0.5. The remaining steps were performed at room temperature. Cells were recovered by centrifugation (4000 rpm for 20 min) and washed once in 20 mM potassium phosphate buffer (pH 7.2) containing MgCl2 (1 mM). After a second centrifugation, the pellet was resuspended and adjusted to OD600 of 0.5. Then, 50 µL of the desired compound was added to 100 µL of the cell suspension to obtain a final concentration varying from 3.9 µM to 250 µM. Fifty microliters of nitrocefin were then added to obtain a final concentration of 50 µg/mL. Nitrocefin hydrolysis was monitored spectrophotometrically by measuring the increase in absorbance at 490 nm. Assays were performed in 96-well plates using a M200 Pro Tecan […]
as §1, §2
reader. CC50 values (concentration at 50% cytotoxicity) were calculated by normalizing the fluorescence readout, with 74 µg/mL tamoxifen as negative control (0%) and normal cell growth as positive control (100%). The concentration-dependent percentage cytotoxicity was fitted to a dose–response function (using Pipeline Pilot) and CC50 values were determined.
Human whole blood was washed three times with three volumes of 0.9% NaCl and then resuspended in the same solution to a concentration of 0.5 x 10^8 cells/mL, as determined by the manual cell count in a Neubauer hemocytometer. The washed cells were then added to the 384-well compound-containing plates for a final volume of 50 µL. After a 10 min shake on a plate shaker, the plates were then incubated for 1 h at 37 °C. After incubation, the plates were centrifuged at 1,000g for 10 min to pellet cells and debris; 25 µL of the supernatant was then transferred to a polystyrene 384-well assay plate. Hemolysis was determined by measuring the supernatant absorbance at […] (OD405). The absorbance was measured using a Tecan M1000 Pro monochromator plate reader. HC10 and HC50 (concentration at 10% and 50% hemolysis, respectively) were calculated by curve fitting the inhibition values vs. log (concentration) using a sigmoidal dose–response function with variable fitting values for the top, bottom, and slope.
2.8. Real-time growth curves
Solutions of the compound at concentrations of 2, 4, and 16 µg/mL were tested each in triplicate against S. aureus ATCC 25923 [26]. Typically, in a 96-well plate were placed 10 µL of 40, 80, and 320 µg/mL stock solutions of compound, as well as 190 µL of a 5 x 10^5 CFU/mL of the selected bacterial suspension in brain heart infusion (BHI) broth. Positive controls containing only 200 µL of a 5 x 10^5 CFU/mL of bacterial suspension in BHI and negative controls containing only 200 µL of BHI broth were added. The plate was incubated at 37°C in a TECAN Spark Reader (Roche Diagnostic) and real-time […]

| SMILES | IC50 at 20 h [1] [µM] | Erythro/E.c.: fold change, ratio between intrinsic MIC of test compound and combination MIC (E. coli ATCC 25922) | Erythro/E.c.: concentration required to restore erythromycin activity (E. coli ATCC 25922) [µM] |
| --- | --- | --- | --- |
| C=C[C@]1(C)C[C@@H](OC(=O)CSCCN(CC)CC)[C@]2(C)[C@H](C)CC[C@]3(CCC(=O)[C@H]32)[C@@H](C)[C@@H]1O [Compound 2, Tiamulin, reference compound] | > 64.8 | 0.5 | > 405 |
| C=C[C@]1(C)C[C@@H](OC(=O)CNCCCNCCCCNCCCNCC(=O)O[C@@H]2C[C@@](C)(C=C)[C@@H](O)[C@H](C)[C@]34CCC(=O)[C@H]3[C@@]2(C)[C@H](C)CC4)[C@]2(C)[C@H](C)CC[C@]3(CCC(=O)[C@H]32)[C@@H](C)[C@@H]1O.O=C(O)C(F)(F)F.O=C(O)C(F)(F)F.O=C(O)C(F)(F)F.O=C(O)C(F)(F)F [Compound 9a, N^1,N^1′-(Butane-1,4-diyl)bis(N^3-(2-(((3aR,4R,5R,7S,8S,9R,9aS,12R)-8-hydroxy-4,7,9,12-tetramethyl-3-oxo-7-vinyldecahydro-4,9a-propanocyclopenta [8]annulen-5-yl)oxy)-2-oxoethyl)propane-1,3-diaminium) 2,2,2-trifluoroacetate] | > 23.2 | 2 | – |
| C=C[C@]1(C)C[C@@H](OC(=O)CNCCCNCCCCCCNCCCNCC(=O)O[C@@H]2C[C@@](C)(C=C)[C@@H](O)[C@H](C)[C@]34CCC(=O)[C@H]3[C@@]2(C)[C@H](C)CC4)[C@]2(C)[C@H](C)CC[C@]3(CCC(=O)[C@H]32)[C@@H](C)[C@@H]1O.O=C(O)C(F)(F)F.O=C(O)C(F)(F)F.O=C(O)C(F)(F)F.O=C(O)C(F)(F)F [Compound 9b, N^1,N^1′-(Hexane-1,6-diyl)bis(N^3-(2-(((3aR,4R,5R,7S,8S,9R,9aS,12R)-8-hydroxy-4,7,9,12-tetramethyl-3-oxo-7-vinyldecahydro-4,9a-propanocyclopenta [8]annulen-5-yl)oxy)-2-oxoethyl)propane-1,3-diaminium) 2,2,2-trifluoroacetate] | > 22.7 | 1 | 8.88 |
| C=C[C@]1(C)C[C@@H](OC(=O)CNCCCNCCCCCCCNCCCNCC(=O)O[C@@H]2C[C@@](C)(C=C)[C@@H](O)[C@H](C)[C@]34CCC(=O)[C@H]3[C@@]2(C)[C@H](C)CC4)[C@]2(C)[C@H](C)CC[C@]3(CCC(=O)[C@H]32)[C@@H](C)[C@@H]1O.O=C(O)C(F)(F)F.O=C(O)C(F)(F)F.O=C(O)C(F)(F)F.O=C(O)C(F)(F)F [Compound 9c, N^1,N^1′-(Heptane-1,7-diyl)bis(N^3-(2-(((3aR,4R,5R,7S,8S,9R,9aS,12R)-8-hydroxy-4,7,9,12-tetramethyl-3-oxo-7-vinyldecahydro-4,9a-propanocyclopenta [8]annulen-5-yl)oxy)-2-oxoethyl)propane-1,3-diaminium) 2,2,2-trifluoroacetate] | > 22.5 | 2 | – |
| C=C[C@]1(C)C[C@@H](OC(=O)CNCCCNCCCCCCCCNCCCNCC(=O)O[C@@H]2C[C@@](C)(C=C)[C@@H](O)[C@H](C)[C@]34CCC(=O)[C@H]3[C@@]2(C)[C@H](C)CC4)[C@]2(C)[C@H](C)CC[C@]3(CCC(=O)[C@H]32)[C@@H](C)[C@@H]1O.O=C(O)C(F)(F)F.O=C(O)C(F)(F)F.O=C(O)C(F)(F)F.O=C(O)C(F)(F)F [Compound 9d, N^1,N^1′-(Octane-1,8-diyl)bis(N^3-(2-(((3aR,4R,5R,7S,8S,9R,9aS,12R)-8-hydroxy-4,7,9,12-tetramethyl-3-oxo-7-vinyldecahydro-4,9a-propanocyclopenta [8]annulen-5-yl)oxy)-2-oxoethyl)propane-1,3-diaminium) 2,2,2-trifluoroacetate] | > 22.3 | 2 | – |
| C=C[C@]1(C)C[C@@H](OC(=O)CNCCCNCCCCCCCCCCNCCCNCC(=O)O[C@@H]2C[C@@](C)(C=C)[C@@H](O)[C@H](C)[C@]34CCC(=O)[C@H]3[C@@]2(C)[C@H](C)CC4)[C@]2(C)[C@H](C)CC[C@]3(CCC(=O)[C@H]32)[C@@H](C)[C@@H]1O.O=C(O)C(F)(F)F.O=C(O)C(F)(F)F.O=C(O)C(F)(F)F.O=C(O)C(F)(F)F [Compound 9e, N^1,N^1′-(Decane-1,10-diyl)bis(N^3-(2-(((3aR,4R,5R,7S,8S,9R,9aS,12R)-8-hydroxy-4,7,9,12-tetramethyl-3-oxo-7-vinyldecahydro-4,9a-propanocyclopenta [8]annulen-5-yl)oxy)-2-oxoethyl)propane-1,3-diaminium) 2,2,2-trifluoroacetate] | > 21.9 | 0.5 | 8.54 |
| C=C[C@]1(C)C[C@@H](OC(=O)CNCCCNCCCCCCCCCCCCNCCCNCC(=O)O[C@@H]2C[C@@](C)(C=C)[C@@H](O)[C@H](C)[C@]34CCC(=O)[C@H]3[C@@]2(C)[C@H](C)CC4)[C@]2(C)[C@H](C)CC[C@]3(CCC(=O)[C@H]32)[C@@H](C)[C@@H]1O.O=C(O)C(F)(F)F.O=C(O)C(F)(F)F.O=C(O)C(F)(F)F.O=C(O)C(F)(F)F [Compound 9f, N^1,N^1′-(Dodecane-1,12-diyl)bis(N^3-(2-(((3aR,4R,5R,7S,8S,9R,9aS,12R)-8-hydroxy-4,7,9,12-tetramethyl-3-oxo-7-vinyldecahydro-4,9a-propanocyclopenta [8]annulen-5-yl)oxy)-2-oxoethyl)propane-1,3-diaminium) 2,2,2-trifluoroacetate] | 8.3 | 0.5 | 8.38 |
